Where two headings read alike, the source gives them in different places.
Columns and labels:
[1] = molecular target: T1, human serotonin transporters (Homo sapiens, UniProt P31645); test: Serotonin transporter binding assay ([3H]-citalopram competition, HEK-hSERT cell membranes); conditions: HEK-hSERT membranes, [3H]-citalopram displacement, read-out: SERT IC50
T1 construct: expressed in transfected cells
Protocol: Serotonin transporter binding assay. HEK-293 cells that stably express human serotonin transporters (HEK-hSERT cells) were grown at 37° C. in 5% CO2 as a monolayer in medium consisting of EMEM supplemented with 10% fetal bovine serum and G418 sulfate (500 μg/ml). To prepare membranes for radioligand binding experiments, cells were rinsed twice with phosphate-buffered saline (138 mM NaCl, 4.1 mM KCl, 5.1 mM Na2PO4, 1.5 mM KH2PO4, 11.1 mM glucose, pH 7.4). Cells were transferred from plates to polypropylene tubes (16×100 mm), centrifuged at 1,200×g for 5 min and were frozen at −80° C. until assay. Following centrifugation, pellets were resuspended by homogenization in buffer consisting of 50 mM Tris (pH 7.7 at 25° C.), 120 mM NaCl and 5 mM KCl and then centrifuged at 32,000×g for 10 min. Following centrifugation, supernatants were discarded and pellets were resuspended in buffer consisting of 50 mM Tris (pH 7.4 at 25° C.), 150 mM NaCl and 5 mM KCl. Membrane homogenates (200 μl/plate) were incubated with 1 nM [^3H]-citalopram (specific activity=85 Ci/mmol) and increasing concentrations of test compounds for 1 hr at 25° C. in a total volume of 250 μl. The assay buffer consisted of 50 mM Tris (pH 7.4 at 25° C.), 120 mM NaCl and 5 mM KCl (pH 7.4 with conc. HCl). Plates were incubated for 1 hr at 25° C., then filtered through 0.5% PEI treated Whatman GF/B filters using a Brandel cell harvester. Filters were washed three times with 3 ml of ice-cold tris wash buffer. Non-specific binding was defined with 10 μM fluoxetine. Amount of radioligand bound in the presence and absence of competitor was analyzed by plotting (-)log drug concentration versus the amount of radioligand specifically bound. The midpoint of the displacement curve (IC50, nM), signifies the potency. Ki values can be calculated using the method of Cheng and Prusoff (Cheng and Prusoff, BiochemicalPharmacology, Vol 22, pp. 3099-3108, Pergamon Press (1973)).

[2] = molecular target: T2, neurokinin-1 (NK-1) receptor (Homo sapiens, UniProt P25103); test: NK-1 Binding assay ([125I] Substance P competition, U373 cell membranes)
T2 construct: a human glioblastoma-astrocytoma cell line that endogenously expresses the neurokinin-1 (NK-1) receptor; endogenous in cells; host or cells: U373 human glioblastoma-astrocytoma cells (membranes)
T2 sequence (P25103 whole entry): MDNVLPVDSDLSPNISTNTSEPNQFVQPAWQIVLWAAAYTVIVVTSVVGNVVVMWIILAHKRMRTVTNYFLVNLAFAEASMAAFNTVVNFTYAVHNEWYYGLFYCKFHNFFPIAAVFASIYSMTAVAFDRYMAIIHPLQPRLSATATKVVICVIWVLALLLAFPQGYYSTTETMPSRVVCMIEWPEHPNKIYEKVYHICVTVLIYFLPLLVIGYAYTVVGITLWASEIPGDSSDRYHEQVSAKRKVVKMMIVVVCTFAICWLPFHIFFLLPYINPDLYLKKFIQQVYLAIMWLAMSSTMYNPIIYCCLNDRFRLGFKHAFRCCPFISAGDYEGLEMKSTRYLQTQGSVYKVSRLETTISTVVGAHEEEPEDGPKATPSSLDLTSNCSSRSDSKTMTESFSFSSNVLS
Protocol: NK-1 Binding assay. U373 cells, a human glioblastoma-astrocytoma cell line that endogenously expresses the neurokinin-1 (NK-1) receptor, were grown in a monolayer culture at 37° C. in 5% CO2 and fed with Minimum Essential Medium (MEM) supplemented with 10% fetal bovine serum. Membranes were prepared as follows: Cells were washed twice with ice-cold phosphate-buffered saline (pH 7.4) and then incubated for 5-10 minutes with ice-cold 10 mM Tris buffer (pH 7.4) containing 5 mM EDTA. Cells were removed from plates, homogenized, and centrifuged at 32,000×g for 20 minutes. The resulting supernatant was discarded, and the pellet resuspended by homogenization in 50 mM Tris buffer (pH 7.4) containing 1 mM EDTA and centrifuged at 32,000×g for 20 minutes. The resulting supernatant was discarded, and the pellet resuspended by homogenization in NK-1 binding assay buffer (50 mM Tris-HCL (pH 7.4), 3 mM MnCl2, 200 μg/ml BSA, 5 μg/ml chymostatin, 40 μg/ml bacitracin and 4 μg/ml leupeptin).
On the day of an experiment the membrane preparation was thawed, homogenized and diluted with NK-1 binding assay buffer to the appropriate concentration. […] Substance P, at a concentration of […], and concentrations of drugs ranging from 10000 to 0.01 nM. Samples were incubated for 30 min at 20° C. then filtered through GF/B glass fiber filters (pretreated with 1% polyethyleneimine and 0.3% Triton X-100) using a Brandel cell harvester. The filters were then washed with 10 ml ice cold 50 mM Tris-HCL (pH 7.4) containing 3 mM MgCl2. […] The amount of radioligand bound in the presence and absence of competitor was analyzed by plotting (-)log drug concentration versus the amount of radioligand specifically bound. The midpoint of the displacement curve (IC50, nM), signifies the potency.

[3] = Table 1, U373 membranes, [125I] Substance P displacement, read-out: NK-1 IC50

T1 sequence (P31645 whole entry): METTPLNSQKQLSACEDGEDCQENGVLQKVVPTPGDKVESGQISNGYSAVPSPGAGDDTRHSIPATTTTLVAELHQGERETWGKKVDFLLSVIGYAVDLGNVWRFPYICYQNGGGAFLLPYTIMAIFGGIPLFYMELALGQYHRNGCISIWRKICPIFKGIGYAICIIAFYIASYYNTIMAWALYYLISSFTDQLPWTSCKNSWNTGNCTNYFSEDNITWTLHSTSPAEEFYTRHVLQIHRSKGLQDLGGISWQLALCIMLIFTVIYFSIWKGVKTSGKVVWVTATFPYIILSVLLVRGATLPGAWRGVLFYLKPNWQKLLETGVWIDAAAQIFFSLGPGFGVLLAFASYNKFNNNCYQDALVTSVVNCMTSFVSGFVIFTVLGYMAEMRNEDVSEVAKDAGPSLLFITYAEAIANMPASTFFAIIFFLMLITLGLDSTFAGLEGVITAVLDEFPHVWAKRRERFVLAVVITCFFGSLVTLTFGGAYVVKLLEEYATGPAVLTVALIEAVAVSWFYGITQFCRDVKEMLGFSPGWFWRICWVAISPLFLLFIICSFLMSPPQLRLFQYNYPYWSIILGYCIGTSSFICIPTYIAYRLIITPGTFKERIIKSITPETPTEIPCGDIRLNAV

Row | IC50 ([1]; Table 1) [nM] | IC50 [2, 3] [nM] | Compound | IC50 ([1]; Table 2) [nM] | IC50 [2] [nM]
1 | 0.01 to 100 | 0.01 to 100 | FC(F)(F)c1cc(COCC2(c3ccccc3)CCNCC2)cc(-c2ccncc2Cl)c1 | – | –
2 | 0.01 to 100 | 0.01 to 100 | Cc1cnccc1-c1cc(COCC2(c3ccccc3)CCNCC2)cc(C(F)(F)F)c1 | – | –
3 | 0.01 to 100 | 0.01 to 100 | Cc1cc(-c2cc(COCC3(c4ccccc4)CCNCC3)cc(C(F)(F)F)c2)ccn1 | – | –
4 | 0.01 to 100 | 0.01 to 100 | FC(F)(F)c1cc(COCC2(c3ccccc3)CCNCC2)cc(-c2ccncc2)c1 | – | –
5 | 0.01 to 100 | 0.01 to 100 | N#Cc1ccc(-c2cc(COCC3(c4ccccc4)CCNCC3)cc(C(F)(F)F)c2)cc1 | – | –
6 | 0.01 to 100 | 0.01 to 100 | CCOc1ccc(-c2cc(COCC3(c4ccccc4)CCNCC3)cc(C(F)(F)F)c2)cc1 | – | –
7 | 0.01 to 100 | 0.01 to 100 | FC(F)(F)c1cccc(-c2cc(COCC3(c4ccccc4)CCNCC3)cc(C(F)(F)F)c2)c1 | – | –
8 | 0.01 to 100 | 0.01 to 100 | COc1ccccc1-c1cc(COCC2(c3ccccc3)CCNCC2)cc(C(F)(F)F)c1 | – | –
9 | 0.01 to 100 | > 300 | FC(F)(F)c1cc(COCC2(c3ccccc3)CCNCC2)cc(-c2cccc3c2oc2ccccc23)c1 | – | –
10 | 0.01 to 100 | 0.01 to 100 | FC(F)(F)c1cc(COCC2(c3ccccc3)CCNCC2)cc(-c2ccccc2Cl)c1 | – | –
11 | 0.01 to 100 | 0.01 to 100 | Fc1cccc(F)c1-c1cc(COCC2(c3ccccc3)CCNCC2)cc(C(F)(F)F)c1 | – | –
12 | 0.01 to 100 | 0.01 to 100 | COc1ccc(-c2cc(COCC3(c4ccccc4)CCNCC3)cc(C(F)(F)F)c2)cc1F | – | –
13 | 0.01 to 100 | 0.01 to 100 | Fc1ccc(-c2cc(COCC3(c4ccccc4)CCNCC3)cc(C(F)(F)F)c2)cc1F | – | –
14 | 100 to 300 | 0.01 to 100 | CCCCCc1ccc(-c2cc(COCC3(c4ccccc4)CCNCC3)cc(C(F)(F)F)c2)cc1 | – | –
15 | 100 to 300 | > 300 | FC(F)(F)c1cc(COCC2(c3ccccc3)CCNCC2)cc(-c2ccccc2Oc2ccccc2)c1 | – | –
16 | 100 to 300 | 100 to 300 | Cc1cccc(C)c1-c1cc(COCC2(c3ccccc3)CCNCC2)cc(C(F)(F)F)c1 | – | –
17 | 0.01 to 100 | 0.01 to 100 | FC(F)(F)c1cc(COCC2(c3ccccc3)CCNCC2)cc(-c2ccc3c(c2)OCO3)c1 | – | –
18 | > 300 | > 300 | CC(C)(C)c1ccc(-c2cc(COCC3(c4ccccc4)CCNCC3)cc(C(F)(F)F)c2)cc1 | – | –
19 | 0.01 to 100 | 0.01 to 100 | COc1ccc(-c2cc(COCC3(c4ccccc4)CCNCC3)cc(C(F)(F)F)c2)c(OC)c1 | – | –
20 | 0.01 to 100 | 0.01 to 100 | Oc1cccc(-c2cc(COCC3(c4ccccc4)CCNCC3)cc(C(F)(F)F)c2)c1 | – | –
21 | 0.01 to 100 | 0.01 to 100 | Oc1ccc(-c2cc(COCC3(c4ccccc4)CCNCC3)cc(C(F)(F)F)c2)cc1 | – | –
22 | 0.01 to 100 | 0.01 to 100 | FC(F)(F)c1cc(COCC2(c3ccccc3)CCNCC2)cc(-c2ccc(Cl)c(Cl)c2)c1 | – | –
23 | 0.01 to 100 | 0.01 to 100 | FC(F)(F)Oc1ccc(-c2cc(COCC3(c4ccccc4)CCNCC3)cc(C(F)(F)F)c2)cc1 | – | –
24 | 0.01 to 100 | 100 to 300 | CC(=O)c1ccc(-c2cc(COCC3(c4ccccc4)CCNCC3)cc(C(F)(F)F)c2)cc1 | – | –
25 | 0.01 to 100 | 100 to 300 | OCc1ccccc1-c1cc(COCC2(c3ccccc3)CCNCC2)cc(C(F)(F)F)c1 | – | –
26 | 0.01 to 100 | > 300 | Fc1cc(-c2cc(COCC3(c4ccccc4)CCNCC3)cc(C(F)(F)F)c2)ccc1-c1ccccc1 | – | –
27 | 100 to 300 | 100 to 300 | COc1c(C)cc(-c2cc(COCC3(c4ccccc4)CCNCC3)cc(C(F)(F)F)c2)cc1C | – | –
28 | 0.01 to 100 | 100 to 300 | FC(F)(F)c1cc(COCC2(c3ccccc3)CCNCC2)cc(-c2cccc3cccnc23)c1 | – | –

Row | IC50 ([1]; Table 1) [nM] | IC50 [2, 3] [nM] | Compound | IC50 ([1]; Table 2) [nM] | IC50 [2] [nM]
29 | 0.01 to 100 | 100 to 300 | OCc1cccc(-c2cc(COCC3(c4ccccc4)CCNCC3)cc(C(F)(F)F)c2)c1 | – | –
30 | 100 to 300 | 100 to 300 | FC(F)(F)c1cc(COCC2(c3ccccc3)CCNCC2)cc(-c2cccc(-c3ccccc3)c2)c1 | – | –
31 | 0.01 to 100 | 0.01 to 100 | Fc1cc(F)cc(-c2cc(COCC3(c4ccccc4)CCNCC3)cc(C(F)(F)F)c2)c1 | – | –
32 | 0.01 to 100 | 100 to 300 | CSc1ccccc1-c1cc(COCC2(c3ccccc3)CCNCC2)cc(C(F)(F)F)c1 | – | –
33 | > 300 | > 300 | Cc1cc(C)c(-c2cc(COCC3(c4ccccc4)CCNCC3)cc(C(F)(F)F)c2)c(C)c1 | – | –
34 | 0.01 to 100 | > 300 | COc1ccc(OC)c(-c2cc(COCC3(c4ccccc4)CCNCC3)cc(C(F)(F)F)c2)c1 | – | –
35 | 0.01 to 100 | > 300 | COc1ccc(Cl)cc1-c1cc(COCC2(c3ccccc3)CCNCC2)cc(C(F)(F)F)c1 | – | –
36 | 0.01 to 100 | 0.01 to 100 | N#Cc1cccc(-c2cc(COCC3(c4ccccc4)CCNCC3)cc(C(F)(F)F)c2)c1 | – | –
37 | 0.01 to 100 | 0.01 to 100 | COc1cccc(OC)c1-c1cc(COCC2(c3ccccc3)CCNCC2)cc(C(F)(F)F)c1 | – | –
38 | 0.01 to 100 | 0.01 to 100 | Fc1ccc(-c2cc(COCC3(c4ccccc4)CCNCC3)cc(C(F)(F)F)c2)c(F)c1 | – | –
39 | 0.01 to 100 | 0.01 to 100 | FC(F)(F)c1cc(COCC2(c3ccccc3)CCNCC2)cc(-c2ccccn2)c1 | – | –
40 | 0.01 to 100 | 0.01 to 100 | FC(F)(F)c1cc(COCC2(c3ccccc3)CCNCC2)cc(-c2ccco2)c1 | – | –
41 | 0.01 to 100 | 0.01 to 100 | FC(F)(F)c1cc(COCC2(c3ccccc3)CCNCC2)cc(-c2nccs2)c1 | – | –
42 | 0.01 to 100 | 100 to 300 | FC(F)(F)c1cc(COCC2(c3ccccc3)CCNCC2)cc(-c2ncccn2)c1 | – | –
43 | 0.01 to 100 | > 300 | Cn1nc(C(F)(F)F)cc1-c1cc(COCC2(c3ccccc3)CCNCC2)cc(C(F)(F)F)c1 | – | –
44 | 0.01 to 100 | 100 to 300 | Cn1cncc1-c1cc(COCC2(c3ccccc3)CCNCC2)cc(C(F)(F)F)c1 | – | –
45 | 0.01 to 100 | 0.01 to 100 | FC(F)(F)c1cc(COCC2(c3ccccc3)CCNCC2)cc(-c2ccccc2)c1 | – | –
46 | 0.01 to 100 | 0.01 to 100 | Cc1ccc(-c2cc(COCC3(c4ccccc4)CCNCC3)cc(C(F)(F)F)c2)s1 | – | –
47 | 0.01 to 100 | > 300 | FC(F)(F)c1cc(COCC2(c3ccccc3)CCNCC2)cc(-n2nnnc2C(F)(F)F)c1 | – | –
48 | 100 to 300 | > 300 | COc1ccc(-c2nnn(C)n2)cc1COCC1(c2ccccc2)CCNCC1 | – | –
49 | 0.01 to 100 | 100 to 300 | FC(F)(F)c1cc(COCC2(c3ccccc3)CCNCC2)cc(-c2nnn[nH]2)c1 | – | –
50 | 0.01 to 100 | 0.01 to 100 | Cn1nnc(-c2cc(COCC3(c4ccccc4)CCNCC3)cc(C(F)(F)F)c2)n1 | – | –
51 | 0.01 to 100 | 0.01 to 100 | Cn1nnnc1-c1cc(COCC2(c3ccccc3)CCNCC2)cc(C(F)(F)F)c1 | – | –
52 | 0.01 to 100 | 100 to 300 | Cc1nnnn1-c1cc(COCC2(c3ccccc3)CCNCC2)cc(C(F)(F)F)c1 | – | –
53 | 0.01 to 100 | 0.01 to 100 | COc1ccc(-n2nnnc2C)cc1COCC1(c2ccccc2)CCNCC1 | – | –
54 | 0.01 to 100 | > 300 | COc1ccc(-c2ccncc2)cc1COCC1(c2ccccc2)CCNCC1 | – | –
55 | – | – | CC(C)N1CCC(COCc2cc(-c3ccc(C#N)cc3)cc(C(F)(F)F)c2)(c2ccccc2)CC1 | > 300 | 0.01 to 100

From US20070249607A1, “NK-1 AND SEROTONIN TRANSPORTER INHIBITORS” (Bristol-Myers Squibb Company, priority 2006, published 2007)
